In ChEMBL document CHEMBL1148943, “Estrogenic and anticarcinogenic properties of kurarinone, a lavandulyl flavanone from the roots of Sophora flavescens” (J Nat Prod, 2004):

Tests used:
Estrogen receptor [1] = biological target: T1, Estrogen receptor (Homo sapiens, UniProt P03372); experiment: Estrogenic activity at human estrogen receptor expressing Saccharomyces cerevisiae carrying estrogen responsive sequence containing plasmid assessed as metabolism of chlorophenol res beta-D-galactopyranoside
T1 sequence (P03372 whole entry): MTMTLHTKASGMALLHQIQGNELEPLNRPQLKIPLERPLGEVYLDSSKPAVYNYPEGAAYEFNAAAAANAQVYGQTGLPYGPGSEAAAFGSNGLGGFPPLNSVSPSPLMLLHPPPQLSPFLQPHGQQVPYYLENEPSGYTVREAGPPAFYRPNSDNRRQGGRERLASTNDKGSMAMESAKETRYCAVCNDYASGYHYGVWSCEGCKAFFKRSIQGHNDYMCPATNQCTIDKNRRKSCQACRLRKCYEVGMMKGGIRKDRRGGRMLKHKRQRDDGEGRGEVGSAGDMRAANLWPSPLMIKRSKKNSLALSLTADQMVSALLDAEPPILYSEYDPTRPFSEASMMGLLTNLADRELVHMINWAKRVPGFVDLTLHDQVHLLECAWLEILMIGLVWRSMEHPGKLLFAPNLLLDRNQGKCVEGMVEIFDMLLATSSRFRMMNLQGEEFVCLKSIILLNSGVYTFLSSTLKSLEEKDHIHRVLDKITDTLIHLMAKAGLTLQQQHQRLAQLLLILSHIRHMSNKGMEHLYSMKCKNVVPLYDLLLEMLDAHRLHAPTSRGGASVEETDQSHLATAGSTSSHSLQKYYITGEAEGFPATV

Estrogen receptor [2] = biological target: T1, Estrogen receptor; experiment: Estrogenic activity at estrogen receptor in human Ishikawa Var-1 cells assessed as stimulation of alkaline phosphatase activity measured by metabolism of p-nitrophenol phosphatase after 72 hrs; format: cell-based
[3] = Cytotoxicity against human MCF7/6 cells after 72 hrs by SRB assay; format: functional, cell-based; settings: MCF7/6, 72 h
[4] = Cytotoxicity against human MCF7/6 cells at 80 uM after 72 hrs by SRB assay; format: functional; settings: MCF7/6, 72 h
[5] = Cytotoxicity against human MCF7/6 cells at 40 uM after 72 hrs by SRB assay; format: functional; settings: MCF7/6, 72 h

With C=C(C)C(CC=C(C)C)Cc1c(O)cc(OC)c2c1O[C@H](c1ccc(O)cc1O)CC2=O (stereo not given in full) [KURARINONE] as the molecule, how does the EC50 (Estrogen receptor [1]) read?
The EC50 was 4.6 µM.

What about the EC50 (Estrogen receptor [2]) of the same molecule?
The EC50 was 1660 nM.

And the IC50 [3]?
The IC50 was 22.2 µM.

And the inhibition at 80 µM [4]?
Its inhibition at 80 µM is over 80%.

And the inhibition at 40 µM [5]?
The inhibition at 40 µM was 60%.
